Source: patent US5208245A, “Dihydropyridine derivative” (Wakunaga Seiyaku Kabushiki Kaisha, priority 1990, dated 1993)

Tests used:
[1] = tested on: spontaneous hypertensive rats; assay: Antihypertensive action in spontaneous hypertensive rats (SHR), oral administration; type: in vivo, rat; settings: 10 mg/kg orally, (basal - lowest blood pressure)/basal x 100
Method: Test compounds were orally administered to spontaneous hypertensive rats (abbreviated as "SHR" hereinafter) to examine antihypertensive actions thereof.
Two to three days after the operation, the catheter was drawn out from the dorsum cervical part of the rat, and was connected to a blood-pressure measuring device (Polygraph RM-6000 manufactured by Nippon Koden K. K.). Blood pressure and heart rate were measured under the condition without anesthesia and restraint. The test compounds were suspended in 0.5% carboxymethylcellulose for oral administration. To the basal blood pressure obtained by measuring blood pressure over four hours, the lowest blood pressure decreased by the test compounds was used to determine the rate of blood-pressure decrease.
Rate of blood-pressure decrease (%)=(A-B)/A×100
The compound numbers correspond to those indicated in Examples.

[2] = tested on: longitudinal muscle of guinea pig ileum; assay: Calcium antagonism: inhibition of KCl-induced contraction of ileum longitudinal muscle; settings: Cavia porcellus, 1 h; 10^-8 M; 60 min after addition; 80 mM KCl contraction = 100%; 37° C.; read-out: Inhibition rate
Method: A guinea pig having a body weight ranging from 350 g to 400 g was exsanguinated to death and laparotomized, to extract ileum. According to the method of Rosenberger et al. (Rosenberger et al., Can. J. Physiol. Pharmacol. 57, 333-347 (1979)), a sample of longitudinal muscle was prepared from the ileum. Then, a mixed gas consisting of 95% oxygen and 5% carbon dioxide was aerated, while the atmosphere was maintained at 37° C. The sample of the longitudinal muscle of the extracted ileum was placed in a magnus tube containing 20 ml of Tyrode solution, and suspended at 0.5 g of tension. As a comparison, 80 mM KCl was administered to contract the longitudinal muscle. Subsequently, 60 min after the addition of each of the test compounds (10^-8 M), the contraction with KCl was again induced. The level of the contraction obtained by the administration of 80 mM KCl was assigned to 100%, and the inhibition rate thereto was determined.

[3] = Acute toxicity test, intravenous, mice; settings: mouse, in vivo, male ddY mice, observed two weeks
Method: Male ddY mice (5-7 weeks old) were divided into groups each consisting of 4 mice. The test compounds were dissolved in physiological saline containing 50% polyethylene glycol 400, which was then administered intravenously to the mice, and they were put under observation over two weeks. The analysis was done following the Van der Worden method.

SMILES | Rate of blood pressure decrease [1] [%] | inhibition at 0.01 µM [2] [%] | LD50 at 336 h [3] [mg/kg]
COC(=O)C1=C(C)NC(C)=C(C(=O)OC2CCOc3ccccc32)C1c1cccc(Cl)c1Cl (stereo not drawn) [Compound 3] | 35.1 | 81 | 
COC(=O)C1=C(C)NC(C)=C(C(=O)OC)C1c1ccccc1[N+](=O)[O-] [Nifedipine, reference compound] | 24.3 | 98 | 
CCOC(=O)C1=C(C)NC(C)=C(C(=O)OC2CC(C)(C)Oc3ccccc32)C1c1cccc(Cl)c1Cl (stereo not drawn) [Compound 27, 3-(3,4-dihydro-2,2-dimethyl-2H-benzo[b]pyran-4-yl)5-ethyl 1,4-dihydro-2,6-dimethyl-4-(2,3-dichlorophenyl)pyridine-3,5-dicarboxylate] | 36.9 | 42 | 
COC(=O)C1=C(C)NC(C)=C(C(=O)OC2CC(C)(C)Oc3ccccc32)C1c1cccc(Cl)c1Cl (stereo not drawn) [Compound 21, 3-(3,4-dihydro-2,2-dimethyl-2H-benzo[b]pyran-4-yl)5-methtyl 1,4-dihydro-2,6-dimethyl-4-(2,3-dichorophenyl)pyridine-3,5-dicarboxylate] | 37.3 | 69 | 29.7
